Results published in patent US20160354411A1, “OLIVAMINE-INDUCED IMPROVEMENT IN ENDOTHELIAL CELLS VIABILITY AND FUNCTION” (priority 2015, published 2016).

Tests used:
[1] = system: human microvascular endothelial cells; assay: in vitro model of wound healing, time for 50% wound to heal; type: cell-based
Text: The time for wounds to heal by 50% under the various treatment conditions was quantified.

HMEC-1 cells = assay: crystal violet cell viability assay; type: cell-based, human; settings: 24 hours; HT 0-200 μM, OL 0-800 μM, Formulation 1 0-4×
Protocol: A crystal violet cell viability assay was performed to determine the cytotoxic effects of OLIVAMINE® (compositions of hydroxytyrosol and oleuropein) composition on HMEC-1 cells. Briefly, cells were seeded on a 24-well plate and treated for 24 h dose-titration concentrations of HT (0-200 μM), OL (0-800 μM), OLIVAMINE® (compositions of hydroxytyrosol and oleuropein) composition (McCord formulation 1, dilution factor=4×, Table 8). Following treatment, cells were washed twice with 0.9% saline and fixed with […] of 4% neutral formalin for 15-30 min. Cells were then stained with […] of 0.01% (w/v) crystal violet for 30 min, washed with dH2O and left to dry under a fume hood overnight. Cells were then lysed with […] of lysis buffer for 15 min on a rotating platform and the absorbance of each well was measured at the 560 nm wavelength using a microplate spectrophotometer.
To determine whether olive phenols influence cell proliferation, a crystal violet cell viability analysis was conducted. The relative cell viability of HMEC-1 cells was investigated. Cells were incubated with varying concentrations of HT (0-200 μM), OL (0-800 μM) and Formulation 1 (Table 8, 0-4×) 24 hours.

proliferative cells = assay: induction or maintenance of a quiescent cell state; type: cell-based; settings: evidence obtained to-date
Protocol: More specifically, when present at a concentration above a threshold level, hydroxytyrosol can induce proliferative cells into a quiescent state and help maintain cells in a pre-existing quiescent state. Based upon evidence obtained to-date, the threshold concentration is about 10 μM hydroxytyrosol.

[2] = system: human umbilical vein endothelial cells (HUVEC); assay: HUVEC cell migration / wound gap closure with or without 30 mM glucose pre-treatment; type: cell-based; settings: for Time for 50% wound to heal: 24 hours incubation before wounding; for Healing Improvement (%): compared to untreated cells
Protocol: Additional wound studies were conducted using umbilical cord stem cells in addition to the use of hydroxytyrosol compositions and commercially-available OLIVAMINE® (compositions of hydroxytyrosol and oleuropein) compositions (20 μM hydroxytyrosol, 80 μM oleuropein, 2 mM N-acetylcysteine, 50 μM L-proline, 2 mM glycine and 100 μM taurine). These were evaluated with human umbilical vein endothelial cells (HUVEC) to assess impact on cell migration and wound healing.
HUVEC cells. Human umbilical vein endothelial cells are derived from the endothelium of veins from the umbilical cord (HUVEC primary cells purchased from Lonza). HUVECs have been widely used as a model system for the study of the regulation of endothelial cell function and the role of the endothelium in response of the blood vessel wall to stretch, shear forces and the development of atherosclerotic plaques and angiogenesis. For the following study, HUVECs are a primary endothelial cell line as a model system for the function and pathology of endothelial cells. We investigated improvement in cell proliferation and migration following treatment with OLIVAMINE® (compositions of hydroxytyrosol and oleuropein) composition.
In this study, HUVEC cells were pre-treated with or without 30 mM glucose for 3 days (72 hours). The cells were then equilibrated for a day (24 hours), and incubated with 50 μM hydroxytyrosol or OLIVAMINE® (compositions of hydroxytyrosol and oleuropein) formulation (20 μM hydroxytyrosol, 80 μM oleuropein, 2 mM N-acetylcysteine, 50 μM L-proline, 2 mM glycine and 100 μM taurine) for 24 hours before wounding.
Images were taken at intervals and the wound gap was quantified over time using IMAGE® analysis software. […] The distances measured are depicted in the Figures by the horizontal solid lines indicating the distance between the gaps of the wound. 100 measurements were taken per image and a mean gap distance was determined. As shown in FIGS. 7-8 the initial wound and 24 hour measurement are shown by the images, under both control (FIG. 7A) and high glucose (FIG. 8A). In addition the reduction in percentage of open wound is further shown graphically for the control (FIG. 7B) and high glucose (FIG. 8B) conditions. The time for 50% of the wound to heal was quantified as well as the percentage of improvement compared to untreated cells.

[3] = Table 9, single ingredients, Present Art and Present Art without one ingredient

| SMILES | Time for 50% wound to heal [1, 3] | Time for 50% wound to heal ([1]; Table 1) | effect on cell proliferation / viability (HMEC-1 cells) | other results |
| --- | --- | --- | --- | --- |
| NCC(=O)O [Glycine] | 20.73 h |  |  |  |
| O=C(O)[C@@H]1CCCN1 [L-proline] | 23.24 h |  |  |  |
| CC(=O)N[C@@H](CS)C(=O)O [N-acetylcysteine, N-acetyl-L-cysteine, reference compound] | 28.87 h | 28.87 h |  | effect on time and extent of wound healing (in words) ([1]; compared to untreated or to single ingredients, absence and presence of glucose): increased the time to 50% healing compared to untreated |
| C/C=C1/[C@H](O[C@@H]2O[C@H](CO)[C@@H](O)[C@H](O)[C@H]2O)OC=C(C(=O)OC)[C@H]1CC(=O)OCCc1ccc(O)c(O)c1 [Oleuropein] | 25.62 h | 25.62 h | no significantly effects on cell proliferation |  |
| OCCc1ccc(O)c(O)c1 [Hydroxytyrosol] | 19.25 h | 19.25 h | no significantly effects on cell proliferation | threshold concentration for inducing or maintaining quiescence (proliferative cells): about 10 μM; less effective than the present art combination ([1]; hydroxytyrosol alone): 30%; Time for 50% wound to heal ([2]; High Glucose (30 mM, 72 hours)): 15.2 h; Healing Improvement (%) ([2]; High Glucose): 30%; Time for 50% wound to heal ([2]; no glucose pre-treatment): 19.7 h; Healing Improvement (%) ([2]; no glucose pre-treatment): 10% |
| NCCS(=O)(=O)O [L-Taurine] | 22.5 h |  |  |  |
